# Measured values from paper PMC10033409, “Autoregulation of GPCR signalling through the third intracellular loop” (Nature, 2023).
# Values joined by “and” are separate entries in the source; they are usually repeats but may differ in a detail not shown here. Equal values may be shown once.
# Target: β2AR (Homo sapiens, UniProt P07550)
# Assay: Radiolabelled antagonist-binding assay (saturation);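 further: membranes expressing β2AR constructs, equilibrated with radioligand on ice, bound ligand retained on GF/C filters, Bmax normalized to membrane protein from a DC assay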
# Design: HA; expressed in transfected cells; host or cells: crude membrane extracts of transfected cells; Bmax / 125I-Cyanopindolol saturation binding signal: unit not given here
# Details: for Bmax / fmol 125I-Cyanopindolol/mg sample: replicates 1-3 and Average; for fmol 125I-Cyanopindolol/mg sample, Fit: fitted curve
# [1] = Wild-Type + Gs-peptide, 125I-Cyanopindolol 0.000239059 nM
# [2] = Wild-Type + Gs-peptide, 125I-Cyanopindolol 0.0167722 nM
# [3] = Wild-Type + Gs-peptide, 125I-Cyanopindolol 0.0344858 nM
# [4] = Wild-Type + Gs-peptide, 125I-Cyanopindolol 0.073983 nM
# [5] = Wild-Type + Gs-peptide, 125I-Cyanopindolol 0.202201 nM
# [6] = Wild-Type + Gs-peptide, 125I-Cyanopindolol 0.415365 nM
# [7] = Wild-Type + Gs-peptide, 125I-Cyanopindolol 0.83063 nM
# [8] = Wild-Type + Gs-peptide, 125I-Cyanopindolol 1.64238 nM
substance,measurement,setting,value
[^125I](±)-cyanopindolol,125I-Cyanopindolol saturation binding signal,"Wild-Type + 30 µM Gq-peptide, 0.0283 nM, Average",147.58
same,125I-Cyanopindolol saturation binding signal,"Wild-Type + 30 µM Gq-peptide, 0.0283 nM, Fit",291.67
same,125I-Cyanopindolol saturation binding signal,"Wild-Type + 30 µM Gq-peptide, 0.0283 nM, experiments 1-3",132.79 and 160.83 and 149.12
same,125I-Cyanopindolol saturation binding signal,"Wild-Type + 30 µM Gq-peptide, 0.0474 nM, Average",534.47
same,125I-Cyanopindolol saturation binding signal,"Wild-Type + 30 µM Gq-peptide, 0.0474 nM, Fit",446.28
same,125I-Cyanopindolol saturation binding signal,"Wild-Type + 30 µM Gq-peptide, 0.0474 nM, experiments 1-3",334.07 and 648.49 and 620.85
same,125I-Cyanopindolol saturation binding signal,"Wild-Type + 30 µM Gq-peptide, 0.10 nM, Average",767.43
same,125I-Cyanopindolol saturation binding signal,"Wild-Type + 30 µM Gq-peptide, 0.10 nM, Fit",753.07
same,125I-Cyanopindolol saturation binding signal,"Wild-Type + 30 µM Gq-peptide, 1.85 nM, Average",1934.67
same,125I-Cyanopindolol saturation binding signal,"Wild-Type + 30 µM Gq-peptide, 1.85 nM, Fit",1934.64
same,Bmax,Wild-Type + Gs-pep,2030.45 and 2045.98 and 1796.67
same,Bmax,"Wild-Type + Gs-pep, mean",1957.70
same,"fmol 125I-Cyanopindolol/mg sample, Fit",[1],0.00E+00 fmol/mg sample
same,fmol 125I-Cyanopindolol/mg sample,[1],-0.7197 fmol/mg sample and 0.9706 fmol/mg sample and -1.162 fmol/mg sample
same,fmol 125I-Cyanopindolol/mg sample,"Wild-Type + Gs-peptide, 125I-Cyanopindolol 0.000239059 nM, mean",-0.3038 fmol/mg sample
same,"fmol 125I-Cyanopindolol/mg sample, Fit",[2],4.58E+02 fmol/mg sample
same,fmol 125I-Cyanopindolol/mg sample,[2],412.161 fmol/mg sample and 473.943 fmol/mg sample and 418.268 fmol/mg sample
same,fmol 125I-Cyanopindolol/mg sample,"Wild-Type + Gs-peptide, 125I-Cyanopindolol 0.0167722 nM, mean",434.79 fmol/mg sample
same,"fmol 125I-Cyanopindolol/mg sample, Fit",[3],7.83E+02 fmol/mg sample
same,fmol 125I-Cyanopindolol/mg sample,[3],735.259 fmol/mg sample and 854.634 fmol/mg sample and 743.19 fmol/mg sample
same,fmol 125I-Cyanopindolol/mg sample,"Wild-Type + Gs-peptide, 125I-Cyanopindolol 0.0344858 nM, mean",777.694 fmol/mg sample
same,"fmol 125I-Cyanopindolol/mg sample, Fit",[4],1.18E+03 fmol/mg sample
same,fmol 125I-Cyanopindolol/mg sample,[4],1168.59 fmol/mg sample and 1355.16 fmol/mg sample and 1153.34 fmol/mg sample
same,fmol 125I-Cyanopindolol/mg sample,"Wild-Type + Gs-peptide, 125I-Cyanopindolol 0.073983 nM, mean",1225.7 fmol/mg sample
same,"fmol 125I-Cyanopindolol/mg sample, Fit",[5],1.61E+03 fmol/mg sample
same,fmol 125I-Cyanopindolol/mg sample,[5],1680.99 fmol/mg sample and 1767.57 fmol/mg sample and 1409.36 fmol/mg sample
same,fmol 125I-Cyanopindolol/mg sample,"Wild-Type + Gs-peptide, 125I-Cyanopindolol 0.202201 nM, mean",1619.31 fmol/mg sample
same,"fmol 125I-Cyanopindolol/mg sample, Fit",[6],1.79E+03 fmol/mg sample
same,fmol 125I-Cyanopindolol/mg sample,[6],1709.61 fmol/mg sample and 1882.35 fmol/mg sample and 1548.71 fmol/mg sample
same,fmol 125I-Cyanopindolol/mg sample,"Wild-Type + Gs-peptide, 125I-Cyanopindolol 0.415365 nM, mean",1713.56 fmol/mg sample
same,"fmol 125I-Cyanopindolol/mg sample, Fit",[7],1.88E+03 fmol/mg sample
same,fmol 125I-Cyanopindolol/mg sample,[7],1837.2 fmol/mg sample and 2069.95 fmol/mg sample and 1681.21 fmol/mg sample
same,fmol 125I-Cyanopindolol/mg sample,"Wild-Type + Gs-peptide, 125I-Cyanopindolol 0.83063 nM, mean",1862.79 fmol/mg sample
same,"fmol 125I-Cyanopindolol/mg sample, Fit",[8],1.93E+03 fmol/mg sample
same,fmol 125I-Cyanopindolol/mg sample,[8],2102.36 fmol/mg sample and 2003.58 fmol/mg sample and 1852.88 fmol/mg sample
same,fmol 125I-Cyanopindolol/mg sample,"Wild-Type + Gs-peptide, 125I-Cyanopindolol 1.64238 nM, mean",1986.27 fmol/mg sample
same,125I-Cyanopindolol saturation binding signal,"Wild-Type, 0.0283 nM, Average",144.50
same,125I-Cyanopindolol saturation binding signal,"Wild-Type, 0.0283 nM, Fit",400.71
same,125I-Cyanopindolol saturation binding signal,"Wild-Type, 0.0474 nM, Average",627.51
same,125I-Cyanopindolol saturation binding signal,"Wild-Type, 0.0474 nM, Fit",590.99
same,125I-Cyanopindolol saturation binding signal,"Wild-Type, 0.10 nM, Average",1200.07
same,125I-Cyanopindolol saturation binding signal,"Wild-Type, 0.10 nM, Fit",964.14
same,125I-Cyanopindolol saturation binding signal,"Wild-Type, 1.85 nM, Average",2740.91
same,125I-Cyanopindolol saturation binding signal,"Wild-Type, 1.85 nM, Fit",2640.83
same,125I-Cyanopindolol saturation binding signal,"Wild-Type, 1.85 nM, experiments 1-3",2770.91 and 2891.39 and 2560.43
same,"fmol 125I-Cyanopindolol/mg sample, Fit","Wild-Type, 125I-Cyanopindolol 0.0198458 nM (Average)",3.84E+02 fmol/mg sample
same,"fmol 125I-Cyanopindolol/mg sample, Fit","Wild-Type, 125I-Cyanopindolol 0.0420593 nM (Average)",7.28E+02 fmol/mg sample
same,"fmol 125I-Cyanopindolol/mg sample, Fit","Wild-Type, 125I-Cyanopindolol 0.234223 nM (Average)",1.65E+03 fmol/mg sample
same,"fmol 125I-Cyanopindolol/mg sample, Fit","Wild-Type, 125I-Cyanopindolol 0.468204 nM (Average)",1.86E+03 fmol/mg sample
same,"fmol 125I-Cyanopindolol/mg sample, Fit","Wild-Type, 125I-Cyanopindolol 0.871756 nM (Average)",1.97E+03 fmol/mg sample
same,"fmol 125I-Cyanopindolol/mg sample, Fit","Wild-Type, 125I-Cyanopindolol 1.70257 nM (Average)",2.02E+03 fmol/mg sample
same,Bmax,Wild-Type,2241.12 and 1916.49 and 2106.37
same,Bmax,"Wild-Type, mean",2087.99
